Consider one molecule from paper PMC4065339, “Characterization of Family D DNA polymerase from Thermococcus sp. 9°N” (Extremophiles, 2014).

In test [1] the target is T1, polB (9°Nm DNA polymerase; 9°N/E143D) (Thermococcus sp. 9oN-7, UniProt Q56366, E143D).
T1 construct: gene pol; commercial recombinant 9°Nm DNA polymerase (New England Biolabs), E143D variant in exonuclease domain; single subunit
T1 sequence (Q56366 1-775 E143D): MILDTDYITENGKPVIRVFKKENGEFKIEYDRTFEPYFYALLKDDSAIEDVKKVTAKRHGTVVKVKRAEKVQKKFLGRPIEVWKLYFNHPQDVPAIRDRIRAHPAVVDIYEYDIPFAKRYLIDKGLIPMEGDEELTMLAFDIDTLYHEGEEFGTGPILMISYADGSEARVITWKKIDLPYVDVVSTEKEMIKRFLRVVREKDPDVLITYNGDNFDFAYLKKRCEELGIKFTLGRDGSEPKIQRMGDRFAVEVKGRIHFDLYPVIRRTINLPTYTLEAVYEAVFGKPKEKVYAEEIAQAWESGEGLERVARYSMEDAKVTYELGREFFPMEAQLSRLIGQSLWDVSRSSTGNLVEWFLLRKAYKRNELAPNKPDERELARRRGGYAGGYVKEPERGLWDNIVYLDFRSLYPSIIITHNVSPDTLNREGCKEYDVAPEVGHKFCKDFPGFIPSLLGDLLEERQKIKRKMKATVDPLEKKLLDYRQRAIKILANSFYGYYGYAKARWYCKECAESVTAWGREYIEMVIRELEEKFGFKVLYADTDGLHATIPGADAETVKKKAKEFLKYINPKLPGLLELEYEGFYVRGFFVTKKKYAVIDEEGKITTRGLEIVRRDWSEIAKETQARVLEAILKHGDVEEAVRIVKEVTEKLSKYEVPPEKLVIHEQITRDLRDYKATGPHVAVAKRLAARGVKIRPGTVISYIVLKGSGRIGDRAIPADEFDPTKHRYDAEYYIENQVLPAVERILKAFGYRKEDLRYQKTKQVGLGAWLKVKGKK
In words: [α-32P]-dCTP incorporation into primed M13mp18, acid precipitation. It counts as biochemical.

The subject of test [2] is T2, polD (heterodimer of polD-S and polD-L).
T2 construct: gene polC; E. coli T7 Express/pRIL, untagged, co-expressed plasmids pERE1 and pERF5, co-purified heterodimer; with DNA polymerase II small subunit
Described as above. It counts as biochemical, Thermococcus sp. 9°N. As to conditions: 10 nM enzyme, 15 nM primed M13mp18, 50 µM dNTPs, ThermoPol buffer pH 8.8 (2 mM MgSO4), 65 °C, 20 min; read-out: not inhibited by up to 0.4 mM.

Regarding `C[C@@]1(CO)[C@H](O)CC[C@@]2(C)[C@H]1CC[C@H]1C[C@@H]3C[C@@]12CC[C@]3(O)CO` [aphidicolin], the IC50 in test [1] is 300 µM; in test [2], above 400 µM.
